The supplement of paper PMC10307832

Experiments:
Experiment in all cases: relative viability (nuclei count vs DMSO), 5 days (fraction); higher = more cells survive
[1] = compound: Nc1nc(Nc2ccc3c(c2)CC[C@@H](N2CCCC2)CC3)nn1-c1cc2c(nn1)-c1ccccc1CCC2 [Bemcentinib] + CC(=O)c1c(C)c2cnc(Nc3ccc(N4CCNCC4)cn3)nc2n(C2CCCC2)c1=O [Palbociclib] (partner 0.5 µM)
Summary of the method: (§1)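 Nuclei were stained with Hoechst during a one-step fixation (final 0.05% Triton X-100, 1% formaldehyde, 1 ug/ml Hoechst) carried out 5 days after dosing, then counted on 4× images. The cells, lung cancer lines in 1536-well plates, had been dosed by pin tool the day after seeding with one drug alone or a fixed anchor-drug dose plus five library-drug doses (not always all listed) in √10 steps. Relative viability is the nuclei count in treated wells divided by that in vehicle wells, and each value is the median of duplicate plates.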

Bemcentinib + Foretinib = compound: Nc1nc(Nc2ccc3c(c2)CC[C@@H](N2CCCC2)CC3)nn1-c1cc2c(nn1)-c1ccccc1CCC2 [Bemcentinib] + COc1cc2c(Oc3ccc(NC(=O)C4(C(=O)Nc5ccc(F)cc5)CC4)cc3F)ccnc2cc1OCCCN1CCOCC1 [Foretinib] (partner 0.25 µM)
Summary of the method: as §1

Bemcentinib + Pictilisib = compound: Nc1nc(Nc2ccc3c(c2)CC[C@@H](N2CCCC2)CC3)nn1-c1cc2c(nn1)-c1ccccc1CCC2 [Bemcentinib] + CS(=O)(=O)N1CCN(Cc2cc3nc(-c4cccc5[nH]ncc45)nc(N4CCOCC4)c3s2)CC1 [Pictilisib] (partner 1 µM)
Summary of the method: as §1

Axitinib + OSI-027 = compound: CNC(=O)c1ccccc1Sc1ccc2c(/C=C/c3ccccn3)n[nH]c2c1 [Axitinib] + COc1cccc2cc(-c3nc([C@H]4CC[C@H](C(=O)O)CC4)n4ncnc(N)c34)[nH]c12 [OSI-027] (partner 0.5 µM)
Summary of the method: as §1

Cell Line	relative viability ([1]; first compound 0.04 µM)	relative viability ([1]; first compound 0.1265 µM)	relative viability ([1]; first compound 0.4 µM)	relative viability ([1]; first compound 1.265 µM)	relative viability ([1]; first compound 4 µM)	relative viability (Bemcentinib + Foretinib; first compound 0.04 µM)	relative viability (Bemcentinib + Foretinib; first compound 0.1265 µM)	relative viability (Bemcentinib + Foretinib; first compound 0.4 µM)	relative viability (Bemcentinib + Foretinib; first compound 1.265 µM)	relative viability (Bemcentinib + Foretinib; first compound 4 µM)	relative viability (Bemcentinib + Pictilisib; first compound 0.04 µM)	relative viability (Bemcentinib + Pictilisib; first compound 0.1265 µM)	relative viability (Bemcentinib + Pictilisib; first compound 0.4 µM)	relative viability (Bemcentinib + Pictilisib; first compound 1.265 µM)	relative viability (Bemcentinib + Pictilisib; first compound 4 µM)	relative viability (Axitinib + OSI-027; first compound 0.005 µM)	relative viability (Axitinib + OSI-027; first compound 0.01581 µM)	relative viability (Axitinib + OSI-027; first compound 0.05 µM)	relative viability (Axitinib + OSI-027; first compound 0.1581 µM)	relative viability (Axitinib + OSI-027; first compound 0.5 µM)
LU99A	0.367	0.37	0.422	0.401	0.413	0.751	0.763	0.778	0.816	0.837	0.362	0.356	0.329	0.346	0.357	0.314	0.317	0.342	0.289	0.304
LXF-289	0.633	0.629	0.581	0.558	0.622	0.959	1.06	0.976	0.983	0.994	0.871	0.854	0.814	0.79	0.844	0.76	0.727	0.785	0.763	0.877
NCI-H23	0.443	0.472	0.558	0.457	0.519	0.916	1.2	1.15	1.09	1.08	0.443	0.503	0.541	0.453	0.476	0.66	0.568	0.617	0.652	0.699
NCI-H322M	0.49	0.481	0.483	0.537	0.557	0.939	1.01	0.919	1.11	0.97	0.512	0.522	0.418	0.525	0.564	0.569	0.575	0.546	0.536	0.601
NCI-H358	0.135	0.143	0.143	0.137	0.135	0.723	0.827	0.73	0.749	0.853	0.331	0.347	0.336	0.372	0.359	0.785	0.737	0.874	0.681	1.02
NCI-H441	0.197	0.202	0.227	0.195	0.223	1.16	1.05	0.892	0.917	0.875	0.572	0.53	0.575	0.509	0.399	0.736	0.604	0.681	0.541	0.748
NCI-H460	0.241	0.147	0.221	0.301	0.199	1.01	1.22	1.1	1.07	1	0.252	0.267	0.412	0.26	0.374	0.692	0.603	0.665	0.645	0.79
NCI-H520	0.235	0.198	0.265	0.221	0.352	0.957	0.748	0.911	0.685	0.791	0.289	0.309	0.316	0.288	0.406	0.234	0.218	0.216		0.24
NCI-H647	0.43	0.445	0.387	0.315	0.462	1.33	1.22	1.24	1.49	1.2	0.385	0.602	0.427	0.455	0.363	0.703	0.617	0.69	0.551	0.787
NCI-H661	0.384	0.385	0.439	0.375	0.382	0.969	1.04	1.01	0.981	0.986	0.318	0.449	0.422	0.357	0.369	0.741	0.754	0.721	0.617	0.855
NCI-H727	0.625	0.663	0.637	0.696	0.667	0.881	1.09	0.935	0.88	1.03	0.221	0.358	0.413	0.41	0.456	0.785	0.425	0.54	0.528	0.699
NCI-H838	0.226	0.249	0.221	0.205	0.243	1.05	1.15	1.21	1.11	1.18	0.441	0.442	0.639	0.485	0.459	0.5	0.361	0.436	0.38	0.493
NCI-H1355	0.396	0.403	0.419	0.415	0.437	0.958	1.12	1.03	1.04	0.98	0.405	0.389	0.452	0.444	0.458	0.42	0.384	0.492	0.432	0.492
NCI-H1395		0.621	0.645	0.64	0.631	0.994	1.05	1.04	0.934	1.05	0.787	0.619	0.83	0.612	0.674	0.595	0.595	0.736	0.581	0.633
NCI-H1437	0.322	0.373	0.298	0.226	0.324	1.28	1.26	1.33	1.21	1.3	0.457	0.479	0.418	0.409	0.448	0.905	0.832	0.872	0.846	0.847
NCI-H1650	0.324	0.366	0.307	0.354	0.373	1.12	1.1	0.969	0.885	1.32	0.526	0.519	0.548	0.631	0.731	0.706	0.513	0.721	0.64	1.01
